For experiment [1], the target named is c-Kit kinase (Homo sapiens, UniProt P10721). Nature of the experiment: c-Kit AlphaScreen kinase assay.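 Further: c-Kit kinase phosphorylating biotinylated poly(Glu,Tyr), ATP near its KM, 1 h reaction at ambient temperature, AlphaScreen chemiluminescence with streptavidin donor and anti-phosphotyrosine acceptor beads, 10-point inhibitor titration.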 It counts as biochemical. For orientation: In Alpha technology, singlet oxygen from a donor bead excites a nearby acceptor bead.
Description: Kinase activity and compound inhibition are investigated using one or more of the three assay formats described below. The ATP concentrations for each assay are selected to be close to the Michaelis-Menten constant (KM) for each individual kinase. Dose-response experiments are performed at 10 different inhibitor concentrations in a 384-well plate format.
AlphaScreen™ (Perkin Elmer) technology is a proximity assay employing microparticles. Singlet oxygen derived from a donor bead following laser excitation results in chemiluminescence when in proximity (100 Å) to an acceptor bead due to biomolecular interactions.
c-Kit biochemical activity was assessed using AlphaScreen™ (Perkin Elmer) technology, described above. Test compounds, ATP, biotinylated poly(Glu, Tyr) and c-Kit kinase were combined in a volume of 20 μL in a 384-well white, medium binding microtiter plate (Greiner). Reaction mixtures were incubated for 1 hr at ambient temperature. […] After 16 hr incubation at ambient temperature plates were read using an AlphaQuest reader (Perkin Elmer).
Experiment [2] has as its target T1, Flt-4 (baculovirus expressed human Flt-4 kinase domain D725-R1298) (Homo sapiens, UniProt P35916).
T1 construct: human Flt-4 kinase domain D725-R1298; host or cells: baculovirus expression
Nature of the experiment: flt-4 Alphascreen Tyrosine Kinase assay.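 Further: AlphaScreen chemiluminescence read-out of biotinylated poly(Glu,Tyr) 4:1 phosphorylation via streptavidin donor and PY100 anti-phosphotyrosine acceptor beads, ATP near KM, 1 hr kinase reaction, 10-point dose-response.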 Type of experiment: biochemical. The note with it: read-out: flt4 IC50.

Experiment [3] concerns the target T2, c-Met (baculovirus expressed human c-Met kinase domain P948-S1343) (Homo sapiens, UniProt P08581).
T2 construct: human c-Met kinase domain P948-S1343; host or cells: baculovirus expression
Nature of the experiment: c-Met Luciferase-Coupled Chemiluminescent Kinase assay (LCCA).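 Further: kinase activity read as percent ATP left after reaction, by luciferase-luciferin chemiluminescence, with 1 µM ATP and 1 µM poly-EY substrate, 2 h at ambient temperature, 10-point dose-response.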 It counts as biochemical.

Experiment [4] deals with T3, KDR (baculovirus expressed human KDR kinase domain D807-V1356) (Homo sapiens, UniProt P35968).
T3 construct: human KDR kinase domain D807-V1356; host or cells: baculovirus expression
Nature of the experiment: biochemical.

For experiment [5], the target named is T4, Flt-3 (baculovirus expressed human Flt-3 kinase domain R571-S993) (Homo sapiens, UniProt P36888).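 Further: Luciferase-coupled chemiluminescent kinase assay, activity read as percent ATP left after a 3 h reaction at room temperature, ATP near KM, 10-point dose-response.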
T4 construct: human Flt-3 kinase domain R571-S993; host or cells: baculovirus expression
T4 sequence (P36888 571-993): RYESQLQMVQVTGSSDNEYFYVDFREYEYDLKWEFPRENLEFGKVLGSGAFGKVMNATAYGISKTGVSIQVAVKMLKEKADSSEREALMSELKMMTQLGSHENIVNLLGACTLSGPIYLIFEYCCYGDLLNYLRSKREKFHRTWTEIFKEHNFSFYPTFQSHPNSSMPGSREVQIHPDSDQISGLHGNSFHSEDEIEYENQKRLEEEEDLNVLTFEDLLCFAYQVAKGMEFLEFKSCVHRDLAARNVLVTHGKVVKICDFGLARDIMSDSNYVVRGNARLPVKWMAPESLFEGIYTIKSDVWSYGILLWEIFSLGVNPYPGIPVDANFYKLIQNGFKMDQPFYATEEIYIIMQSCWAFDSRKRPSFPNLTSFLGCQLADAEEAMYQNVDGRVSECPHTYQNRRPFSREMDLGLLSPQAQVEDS
The experiment in a line: biochemical. The note with it: read-out: flt3 IC50.

[6] abbreviates: Table 4, inhibition as IC50 class.

Like-named read-outs stand apart in the source and are kept apart here.

T2 sequence (P08581 1011-1343 limits assumed): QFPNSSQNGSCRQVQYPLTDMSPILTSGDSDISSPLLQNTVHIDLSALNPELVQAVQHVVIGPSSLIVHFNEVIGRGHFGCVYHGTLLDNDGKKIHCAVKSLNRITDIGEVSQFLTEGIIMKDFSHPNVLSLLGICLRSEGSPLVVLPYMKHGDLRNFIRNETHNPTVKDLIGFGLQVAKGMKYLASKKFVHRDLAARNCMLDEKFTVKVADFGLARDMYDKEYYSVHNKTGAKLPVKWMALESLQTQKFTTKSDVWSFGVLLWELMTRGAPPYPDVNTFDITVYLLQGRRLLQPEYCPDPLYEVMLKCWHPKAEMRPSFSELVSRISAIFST
T3 sequence (P35968 807-1356): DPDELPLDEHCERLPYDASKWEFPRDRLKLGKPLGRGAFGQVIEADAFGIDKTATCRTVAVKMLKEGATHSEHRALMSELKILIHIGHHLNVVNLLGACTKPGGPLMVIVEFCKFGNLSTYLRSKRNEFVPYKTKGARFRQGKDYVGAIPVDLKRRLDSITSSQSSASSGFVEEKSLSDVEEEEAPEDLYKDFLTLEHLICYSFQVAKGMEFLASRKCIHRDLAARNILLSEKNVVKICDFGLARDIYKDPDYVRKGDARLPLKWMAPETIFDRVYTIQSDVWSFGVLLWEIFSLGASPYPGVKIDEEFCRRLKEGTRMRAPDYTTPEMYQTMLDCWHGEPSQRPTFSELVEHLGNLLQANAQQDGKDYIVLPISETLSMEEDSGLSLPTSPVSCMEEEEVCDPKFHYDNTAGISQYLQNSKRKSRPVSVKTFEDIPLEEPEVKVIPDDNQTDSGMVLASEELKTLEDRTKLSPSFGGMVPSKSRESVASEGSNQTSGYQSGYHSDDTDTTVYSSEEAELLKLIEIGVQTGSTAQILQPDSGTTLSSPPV
T1 sequence (P35916 725-1298 isoform P35916-1): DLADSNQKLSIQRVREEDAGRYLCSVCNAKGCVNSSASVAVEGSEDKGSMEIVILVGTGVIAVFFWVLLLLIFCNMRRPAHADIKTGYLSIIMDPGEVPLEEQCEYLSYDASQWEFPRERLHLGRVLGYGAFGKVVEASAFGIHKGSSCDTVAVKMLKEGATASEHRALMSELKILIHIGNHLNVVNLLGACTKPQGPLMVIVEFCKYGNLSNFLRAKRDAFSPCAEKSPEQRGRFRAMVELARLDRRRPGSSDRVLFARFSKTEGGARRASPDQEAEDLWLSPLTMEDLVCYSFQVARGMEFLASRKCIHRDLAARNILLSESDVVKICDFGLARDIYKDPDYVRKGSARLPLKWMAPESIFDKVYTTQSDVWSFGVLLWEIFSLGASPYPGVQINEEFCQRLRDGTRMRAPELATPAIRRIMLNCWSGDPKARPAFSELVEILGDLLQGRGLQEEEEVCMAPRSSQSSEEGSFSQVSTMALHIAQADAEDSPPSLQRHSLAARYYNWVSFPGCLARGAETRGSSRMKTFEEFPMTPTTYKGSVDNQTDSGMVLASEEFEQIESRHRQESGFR
c-Kit kinase, sequence (P10721 26-976): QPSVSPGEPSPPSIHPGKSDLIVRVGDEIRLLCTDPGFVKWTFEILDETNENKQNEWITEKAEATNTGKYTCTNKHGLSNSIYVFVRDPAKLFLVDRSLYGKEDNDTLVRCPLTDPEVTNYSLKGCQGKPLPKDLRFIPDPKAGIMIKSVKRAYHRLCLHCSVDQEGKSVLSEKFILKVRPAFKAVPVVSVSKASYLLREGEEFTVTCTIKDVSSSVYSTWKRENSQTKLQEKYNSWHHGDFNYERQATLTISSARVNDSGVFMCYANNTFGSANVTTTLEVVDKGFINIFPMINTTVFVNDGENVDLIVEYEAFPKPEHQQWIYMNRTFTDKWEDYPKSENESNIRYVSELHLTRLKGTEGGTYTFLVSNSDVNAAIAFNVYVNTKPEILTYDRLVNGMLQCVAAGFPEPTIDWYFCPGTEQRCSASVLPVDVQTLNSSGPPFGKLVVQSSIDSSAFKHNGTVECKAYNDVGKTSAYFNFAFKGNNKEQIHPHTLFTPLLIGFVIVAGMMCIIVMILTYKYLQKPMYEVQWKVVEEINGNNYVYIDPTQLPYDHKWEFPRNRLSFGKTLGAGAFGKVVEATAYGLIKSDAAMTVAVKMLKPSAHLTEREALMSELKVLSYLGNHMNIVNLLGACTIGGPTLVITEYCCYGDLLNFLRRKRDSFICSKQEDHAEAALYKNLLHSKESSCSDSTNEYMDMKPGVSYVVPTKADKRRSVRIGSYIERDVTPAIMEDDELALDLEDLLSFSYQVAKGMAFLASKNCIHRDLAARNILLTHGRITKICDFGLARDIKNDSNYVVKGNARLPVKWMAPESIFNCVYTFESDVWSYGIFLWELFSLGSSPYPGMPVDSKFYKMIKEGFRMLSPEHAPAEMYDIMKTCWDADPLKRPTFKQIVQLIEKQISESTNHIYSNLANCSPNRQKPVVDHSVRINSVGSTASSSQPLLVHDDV

For orientation: IC50 means the concentration needed to halve the response being measured. As for `CCCCc1ccc(CNC(=O)C(=O)Nc2ccc(Oc3ccnc4cc(OCC5CCNCC5)c(OC)cc34)c(F)c2)cc1` [Example 270, N-[(4-butylphenyl)methyl]-N′-[3-fluoro-4-({6-(methyloxy)-7-[(piperidin-4-ylmethyl)oxy]quinolin-4-yl}oxy)phenyl]ethanediamide], the IC50 is 50 to 500 nM in experiment [1] (setting [6]); 50 to 500 nM in experiment [2] (setting [6]); < 50 nM in experiment [3] (setting [6]); 50 to 500 nM in experiment [4] (setting [6]); 50 to 500 nM in experiment [5] (setting [6]).
For `COc1cc2c(Oc3ccc(NC(=O)C(=O)NCc4cc(C(F)(F)F)ccc4F)cc3F)ccnc2cc1OCC1CCNCC1` [Example 281, N-[3-fluoro-4-({6-(methyloxy)-7-[(piperidin-4-ylmethyl)oxy]quinolin-4-yl}oxy)phenyl]-N′-{[2-fluoro-5-(trifluoromethyl)phenyl]methyl}ethanediamide], the 50% inhibitory concentration (IC50) in experiment [1] (setting [6]) is 50 to 500 nM; in experiment [2] (setting [6]), 50 to 500 nM; in experiment [3] (setting [6]), < 50 nM; in experiment [4] (setting [6]) it was < 50 nM; in experiment [5] (setting [6]), < 50 nM.
On to `COc1cc2c(Oc3ccc(NC(=O)C4(C(=O)Nc5ccc(F)cc5)CC4)cc3F)ccnc2cc1OCCCN1CCNCC1` [Example 332, N-[3-fluoro-4-({6-(methyloxy)-7-[(3-piperazin-1-ylpropyl)oxy]quinolin-4-yl}oxy)phenyl]-N′-(4-fluorophenyl)cyclopropane-1,1-dicarboxamide], for which the IC50 in experiment [1], in experiment [2], in experiment [3], in experiment [4] and in experiment [5] was < 50 nM in each case.
On to `COc1cc2c(Oc3cc(C)c(NC(=O)C4(C(=O)Nc5ccc(F)cc5)CC4)cc3F)ccnc2cc1OCCCN1CCOCC1` [Example 326, N-[5-fluoro-2-methyl-4-({6-(methyloxy)-7-[(3-morpholin-4-ylpropyl)oxy]quinolin-4-yl}oxy)phenyl]-N′-(4-fluorophenyl)cyclopropane-1,1-dicarboxamide], for which the IC50 in experiment [1] is 50 to 500 nM; in experiment [2] it was 50 to 500 nM; in experiment [3], < 50 nM; in experiment [4] it was < 50 nM; in experiment [5], 50 to 500 nM.
Regarding `O=C(Nc1ccc(F)cc1)C1(C(=O)Nc2ccc(Oc3ccnc4cc(Cl)ccc34)c(F)c2)CC1` [Example 303, N-{4-[(7-chloroquinolin-4-yl)oxy]-3-fluorophenyl}-N′-(4-fluorophenyl)cyclopropane-1,1-dicarboxamide], the IC50 in experiment [1] was 500 to 5000 nM; in experiment [2] it was 50 to 500 nM; in experiment [3] it was < 50 nM; in experiment [4] it was < 50 nM; in experiment [5], 500 to 5000 nM.
On to `COc1cc2nccc(Oc3cc(F)c(NC(=O)C4(C(=O)Nc5ccc(F)cc5)CC4)cc3F)c2cc1OC` [Example 324, N-(4-{[6,7-bis(methyloxy)quinolin-4-yl]oxy}-2,5-difluorophenyl)-N′-(4-fluorophenyl)cyclopropane-1,1-dicarboxamide], for which the IC50 in experiment [1], in experiment [2], in experiment [3], in experiment [4] and in experiment [5] was < 50 nM each time.
Take `COc1cc2c(Oc3ccc(NC(=O)C(=O)Nc4cccc(F)c4)cc3F)ccnc2cc1OCC1CCNCC1` [Example 260, N-[3-fluoro-4-({6-(methyloxy)-7-[(piperidin-4-ylmethyl)oxy]quinolin-4-yl}oxy)phenyl]-N′-(3-fluorophenyl)ethanediamide]: the IC50 in experiment [1] (setting [6]) was 50 to 500 nM; in experiment [2] (setting [6]) it was 500 to 5000 nM; in experiment [3] (setting [6]), < 50 nM; in experiment [4] (setting [6]), 500 to 5000 nM; in experiment [5] (setting [6]), 500 to 5000 nM.
Regarding `COc1cc2c(Oc3ccc(NC(=O)C(=O)NCCC(C)C)cc3F)ccnc2cc1OCC1CCNCC1` [Example 263, N-[3-fluoro-4-({6-(methyloxy)-7-[(piperidin-4-ylmethyl)oxy]quinolin-4-yl}oxy)phenyl]-N′-(3-methylbutyl)ethanediamide], the concentration for half-maximal inhibition (IC50) in experiment [1] (setting [6]) was < 50 nM; in experiment [2] (setting [6]) it was 50 to 500 nM; in experiment [3] (setting [6]), < 50 nM; in experiment [4] (setting [6]), 50 to 500 nM; in experiment [5] (setting [6]), 50 to 500 nM.
